Experimental data from patent US20260191861A1, “INFLAMMASOME AND VEGF INHIBITION FOR RETINAL VASCULAR DISEASES” (University of Virginia Patent Foundation, priority 2022, published 2026).

Tested on: participants with center-involved diabetic macular edema (CI-DME)
Test: Randomized clinical trial of oral lamivudine versus placebo in DME: ETDRS best-corrected visual-acuity letter score (VALS)
Format: in vivo, human
Protocol: A single center randomized clinical trial was conducted at a tertiary center in São Paulo, Brazil in accordance with the provisions of the Declaration of Helsinki and Good Clinical Practice guidelines. The study was approved by the local institutional review board and study participants provided written informed consent. This study was registered in the Brazilian Registry of Clinical Trials (ReBEC) under the number RBR-87b6r5s. Latinofarma (Brazil) provided the lamivudine and placebo at no cost and also provided funding for bevacizumab which was repackaged in single-used vials by Citopharma (Brazil).
Participants were excluded if they had high-risk proliferative diabetic retinopathy, received any intravitreous injection or laser photocoagulation within the previous 6 months, positive serology for human immunodeficiency virus or hepatitis B virus, or an estimated glomerular rate filtration below 40 mL/min/1.73 m^2 determined with the use of the Cockcroft-Gault equation.
Randomization was performed at the sealed envelope website (https://sealedenvelope.com), in permuted blocks and with stratification according to visual acuity in the study eye. One physician who was not involved with patient assessment was responsible for the randomization and vial delivery to the patients. The study participants, assessing physicians, and OCT technicians were unaware of the treatment group assignment at all visits.
Placebo vials were provided by the same pharmaceutical company responsible for lamivudine production using the same vehicle. The vials were concealed and delivered to the study center. […] At the 4-week visit, participants were administered an intravitreous injection of bevacizumab (1.25 mg in an injection volume of 0.05 ml) in eyes with CI-DME if the best-corrected visual-acuity letter score (VALS) was less than 69 and the retinal central subfield thickness was 325 μm or more. Injection of bevacizumab was performed by the same physician following topical anesthesia, installation of a sterile lid speculum, and application of povidone-iodine drops. No antibiotic was administered after the procedure.
Visual acuity assessment was performed by two certified assessing physicians. The same participant could be assessed by a different physician on each visit. The exam was performed using a back-illuminated 4-meter Early Treatment Diabetic Retinopathy Study (ETDRS) chart. Different ETDRS charts were used to refine the refraction and to assess the right and left eye at each visit. If fewer than 20 letters were correctly identified at 4 meters, testing was also performed at 1 meter adding+0.75 sphere. The refraction was performed without pupil dilation, in the same exam room with a standardized background illumination.
The principal analysis compared lamivudine to placebo. Change in mean VALS from baseline was the primary outcome of interest. We sought to detect a difference of 6 letters in the VALS between groups. This effect size was chosen for power analyses because this change corresponds to a difference of more than 1 line on the ETDRS or Snellen eye charts, the minimal increase in visual acuity judged to be clinically meaningful. By estimating the standard deviation to be 6 letters, we calculated that 16 eyes in each group would provide the trial with 80% power (at a 5% two-sided alpha level) to detect this difference.
To analyze the change in VALS from baseline, a mixed-effects model was employed. Random effects were included in the model to account for subject-specific variability. […] The model's estimates, confidence intervals (CI), and P values were reported for each predictor.
The exams took place at the beginning of the treatment and after 4 weeks of using the medication. At the 4-week return, […] were administered an intravitreous injection of Avastin, one of the standard anti-VEGF treatments for DME. Four weeks after the injection (8 weeks from the start of the study) participants underwent another eye examination. […]

Nc1ccn([C@@H]2CS[C@H](CO)O2)c(=O)n1 [Lamivudine]
Mixed model: change in visual acuity from baseline, Treatment (Lamivudine vs. Placebo), estimate (Table 4, weeks 4 and 8): 11.86 | Model-based contrast: change in visual acuity, Lamivudine - Placebo (change from baseline to week 4): 11.86 | Model-based contrast: change in visual acuity, Lamivudine - Placebo (change from baseline to week 8): 18.99 | percentage of eyes with improvement in VALS of 15 or more (week 4, oral lamivudine): 38% | mean change in VALS from baseline (week 4, oral lamivudine 150 mg twice daily, before intravitreous bevacizumab): 9.8 letters | mean improvement in VALS from baseline (week 8, oral lamivudine plus intravitreous bevacizumab 1.25 mg at week 4): 16.9 letters | percentage of eyes with improvement in VALS of 15 or more (week 8, oral lamivudine plus intravitreous bevacizumab at week 4): 56%
